Results on four compounds are retold here after patent US12076328B2 (priority 2020, dated 2024).

SMILES strings stand for the structures. pIC50: −log10 of the molar value.

What is called Cmax is the highest concentration seen after dosing. A word on the Tmax: it is the time at which the peak concentration occurs. One may read the pIC50 as −log10 of the IC50, conventionally taken in molar units.

A short description of series [1]: Oral pharmacokinetic analysis in rats. Format: in vivo. The conditions noted are these: niclosamide dose 10 mg/kg by oral gavage, n = 5. The method, then:
The oral pharmacokinetic analysis was conducted at Pharmaron (Ningbo, China). The study protocol was approved and conducted in accordance with the Institutional Animal Care and Use Committee (IACUC) guidelines at Pharmaron. (IACUC; Protocol Number AUP-PK-R-06012019). […] The powders were blended by mortar and pestle and loaded into the capsules using the capsule filling funnel for size 9 (Torpac, Fairfield, NJ, USA). […] Two mobile phases were used. The mobile phase A was a 0.1% formic acid aqueous solution, and the mobile phase B was a mixture of 5% water and 95% acetonitrile (0.1% formic acid). Then, 50 μL of plasma with 5 μL of methanol were added to 200 μL of methanol containing an internal standard mixture for protein precipitation. The samples were vortexed for 30 s and underwent centrifugation for 15 min at 4000 rpm and […]. Thereafter, the supernatant was diluted three times with water, and 2 μL were injected into the HPLC. Furthermore, the resultant particles were subjected to dissolution and the resultant supernatants after centrifugation were analyzed.

A short description of series [2]: Pharmacokinetic evaluation of milled niclosamide extrudate in CD-1 mice. It is filed as in vivo. The conditions noted are these: 500 mg/kg suspended in 0.5% Methocel A4M.
In the next series the test system is COVID-19. The conditions noted are these: Vero E6 cells; cited from earlier work.
In another series the test system is SARS-CoV. The conditions noted are these: Vero cells infected by SARS-CoV (2002 pandemic); cited from earlier work.
For a further series, the system named is SARS-CoV-2. It is filed as cell-based. The conditions noted are these: assumed that the wet tissue has a density.

`O=C(Nc1ccc([N+](=O)[O-])cc1Cl)c1cc(Cl)ccc1O`: in series [1], the AUCInf is 188 ng·h/mL, the AUClast came to 168 ng·h/mL, the “AUC—% Extrap_obs” value was 8.4% and the Cmax was found to be 48.3 ng/mL. In addition, in series [1], the MRTInf_obs came out at 3.56 h, the T1/2 was found to be 1.00 h and the Tmax turned out to be 3.60 h.

In the case of `O=C(Nc1ccc([N+](=O)[O-])cc1Cl)c1cc(Cl)ccc1O` [Crystalline Nic], in series [2], the AUC0-last was determined as 1454.6 ng·h/mL, the Cmax was found to be 661.7 ng/mL and the Tmax stood at 0.5 h.

With `CCN(CC)CCCC(C)Nc1ccnc2cc(Cl)ccc12` (stereo not shown) [chloroquine], the pIC50 in the series with COVID-19 is 5.95; in the series on SARS-CoV, 5.36.

Take `O=C(Nc1ccc([N+](=O)[O-])cc1Cl)c1cc(Cl)ccc1O` [niclosamide, 5-Chloro-N-(2-chloro-4-nitrophenyl)salicylamide]: in the series with SARS-CoV-2, the “Estimated niclosamide IC50 for SARS-CoV-2” value is on record as 0.09156 μg/g of wet tissue.
